SMILES strings stand for the structures. Counter-ions that a name gives are not always drawn.

In general, IC50 refers to the concentration that inhibits the measured activity by half.

For this experiment, the target named is human LOXL2 (Homo sapiens (Human), UniProt Q9Y4K0). Briefly: Human LOXL2 Amine Oxidase Activity Assay (Amplex Red fluorescence). It is filed as biochemical. The note with it: concentrated conditioned media from CHO cells stably expressing human LOXL2; 2 h at 37° C. preincubation; DAP substrate; read-out: IC50. The method, then: LOXL2 amine oxidase activity is evaluated by measuring Amplex Red fluorescence using 10-20× concentrated conditioned media from CHO cells stably expressing human LOXL2. To assay for amine oxidase activity, 10 μL of the concentrated conditioned media is incubated with 2 μL of test compound in DMSO and 73 μL Assay Buffer (50 mM Borate Buffer, pH8) for 2 h at 37° C. After the 2 h incubation, 5 μl of 10 mM 1,5-Diaminopentane (DAP) diluted in Assay Buffer and 10 μl of Amplex Red Mix (8.5 μl Assay Buffer+0.5 μl of 10 mM Amplex Red+1 μl of 500 U/ml Horseradish Peroxidase) are added and the plate mixed and immediately placed on the FlexStaion for fluorescence measurements. Fluorescence is read in kinetic mode every 2 min for 1 hour at excitation=544 and emission=590. The amine oxidase activity is calculated from the slope of the linear portion of the curve.
Chain of human LOXL2 (Q9Y4K0 26-774): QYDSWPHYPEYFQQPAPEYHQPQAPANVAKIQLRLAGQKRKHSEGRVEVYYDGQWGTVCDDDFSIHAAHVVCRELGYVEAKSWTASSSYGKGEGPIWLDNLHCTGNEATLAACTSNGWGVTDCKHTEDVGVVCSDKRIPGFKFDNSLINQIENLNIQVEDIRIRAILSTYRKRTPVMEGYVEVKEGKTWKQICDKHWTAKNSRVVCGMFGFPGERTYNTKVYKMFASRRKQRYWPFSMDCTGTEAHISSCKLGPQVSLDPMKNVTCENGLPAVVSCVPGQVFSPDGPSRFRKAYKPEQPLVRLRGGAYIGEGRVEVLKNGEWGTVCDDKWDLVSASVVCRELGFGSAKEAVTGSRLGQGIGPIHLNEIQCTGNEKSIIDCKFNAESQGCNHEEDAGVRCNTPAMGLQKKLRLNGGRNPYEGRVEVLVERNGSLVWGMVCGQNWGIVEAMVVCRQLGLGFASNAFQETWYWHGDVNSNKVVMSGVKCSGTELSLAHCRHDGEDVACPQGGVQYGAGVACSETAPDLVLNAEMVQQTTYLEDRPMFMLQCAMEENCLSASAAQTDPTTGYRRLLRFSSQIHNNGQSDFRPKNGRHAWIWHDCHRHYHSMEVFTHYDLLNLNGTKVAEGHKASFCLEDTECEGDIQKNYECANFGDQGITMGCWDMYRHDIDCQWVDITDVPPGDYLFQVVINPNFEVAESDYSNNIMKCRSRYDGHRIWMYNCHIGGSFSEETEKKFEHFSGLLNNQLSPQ
In the case of `COC(=O)c1ccc(CNC(=O)c2cccc(Oc3cc(CN)ccn3)c2)cc1` [Compound 1-33, Methyl 4-((3-((4-(aminomethyl)pyridin-2-yl)oxy)benzamido)methyl)benzoate hydrochloride], the IC50 is under 300 nM.
The figure for `NCc1ccnc(Oc2cccc(C(=O)NCc3ccc(C(=O)O)cc3)c2)c1` [Compound 1-34, 4-((3-((4-Aminomethyl)pyridin-2-yl)oxy)benzamido)methyl)benzoic acid hydrochloride] is under 300 nM; for `NCc1ccnc(Oc2cccc(C(=O)NCc3cccc(C(=O)O)c3)c2)c1` [Compound 1-35, 3-((3-((4-Aminomethyl)pyridin-2-yl)oxy)benzamido)methyl)benzoic acid hydrochloride] it is under 300 nM.
The figure for `NCc1ccnc(Oc2cccc(C(=O)N[C@@H](CO)c3ccccc3)c2)c1` [Compound 1-36, (R)-3-((4-Aminomethyl)pyridin-2-yl)oxy)-N-(2-hydroxy-1-phenylethyl)benzamide hydrochloride] is under 300 nM.
Regarding `NCc1ccnc(Oc2cccc(C(=O)NCc3ccc(-n4ccnc4)c(F)c3)c2)c1` [Compound 1-37, 3-((4-(Aminomethyl)pyridin-2-yl)oxy)-N-(3-fluoro-4-(1H-imidazol-1-yl)benzyl)benzamide dihydrochloride], the IC50 was under 300 nM.
The figure for `N=C(N)c1cccc(CNC(=O)c2cccc(Oc3cc(CN)ccn3)c2)c1` [Compound 1-39, 3-((4-(Aminomethyl)pyridin-2-yl)oxy)-N-(3-carbamimidoylbenzyl)benzamide dihydrochloride] is under 300 nM; for `NCc1ccnc(Oc2cccc(C(=O)NCCc3ccccc3)c2)c1` [Compound 1-40, 3-((4-(Aminomethyl)pyridin-2-yl)oxy)-N-phenethylbenzamide hydrochloride] it is under 300 nM; for `NCc1ccnc(Oc2cccc(C(=O)N3CCc4ccccc4C3)c2)c1` [Compound 1-41, (3-((4-(Aminomethyl)pyridin-2-yl)oxy)phenyl)(3,4-dihydroisoquinolin-2(1H)-yl)methanone trifluoroacetate] it is under 300 nM.
For `NCc1ccnc(Oc2cccc(C(=O)NCc3cc4ccccc4s3)c2)c1` [Compound 1-42, 3-((4-(Aminomethyl)pyridin-2-yl)oxy)-N-(benzo[b]thiophen-2-ylmethyl)benzamide hydrochloride], the IC50 is under 300 nM.
For the compound `NCc1ccnc(Oc2cccc(C(=O)NCc3cnccn3)c2)c1` [Compound 1-43, 3-((4-(Aminomethyl)pyridin-2-yl)oxy)-N-(pyrazin-2-ylmethyl)benzamide hydrochloride], the IC50 was under 300 nM.
For the compound `CCCCCCCCCCCCCNC(=O)c1cccc(Oc2cc(CN)ccn2)c1` [Compound 1-44, 3-((4-(Aminomethyl)pyridin-2-yl)oxy)-N-tridecylbenzamide hydrochloride], the IC50 was under 300 nM.
In the case of `NCc1ccnc(OCc2cccc(C(=O)Nc3ccccc3)c2)c1` [Compound 1-45, 3-(((4-(Aminomethyl)pyridin-2-yl)oxy)methyl)-N-phenylbenzamide hydrochloride], the IC50 was under 300 nM.
With `NCc1ccnc(-c2cccnc2)c1` [Compound 2-3, [2,3′-Bipyridin]-4-ylmethanamine], the IC50 is under 300 nM.
Consider `NCc1ccnc(-c2ccc(F)cc2)c1` [Compound 2-4, (2-(4-Fluorophenyl)pyridin-4-yl)methanamine], for which the IC50 is under 300 nM.
Consider `NCc1ccnc(-c2cccc(C(=O)O)c2)c1` [Compound 2-5, hydrochloride], for which the IC50 was in the range of 300 to 1000 nM.
The figure for `NCc1ccnc(-c2ccc(C(=O)O)cc2)c1` [Compound 2-6, 4-(4-Aminomethyl)pyridin-2-yl)benzoic acid trifluoroacetate] is 300 to 1000 nM.
The figure for `NCc1ccnc(Oc2cccc(Oc3ccccc3)c2)c1` [Compound 2-8, (2-(3-Phenoxyphenoxy)pyridin-4-yl)methanamine] is under 300 nM.
As for `NCc1ccnc(Oc2ccc(C(=O)O)cc2)c1` [Compound 2-9, 4-((4-(Aminomethyl)pyridin-2-yl)oxy)benzoic acid hydrochloride], the IC50 was in the range of 300 to 1000 nM.
Consider `NCc1ccnc(Oc2cccc3c2ccn3Cc2ccccc2)c1` [Compound 2-10, (2-((1-Benzyl-1H-indol-4-yl)oxy)pyridin-4-yl)methanamine hydrochloride], for which the IC50 is under 300 nM.
The figure for `Cc1cc2c(Oc3cc(CN)ccn3)cccc2n1Cc1ccc(F)cc1F` [Compound 2-11, (2-((1-(2,4-Difluorobenzyl)-2-methyl-1H-indol-4-yl)oxy)pyridin-4-yl)methanamine trifluoroacetate] is under 300 nM.
Turning to `Cc1cn(Cc2ccc(F)cc2F)c2cccc(Oc3cc(CN)ccn3)c12` [Compound 2-12, (2-((1-(2,4-Difluorobenzyl)-3-methyl-1H-indol-4-yl)oxy)pyridin-4-yl)methanamine trifluoroacetate], the IC50 was under 300 nM.
For `COc1ccc(Cn2c(C)cc3c(Oc4cc(CN)ccn4)cccc32)cn1` [Compound 2-13, (2-((1-((6-Methoxypyridin-3-yl)methyl)-2-methyl-1H-indol-4-yl)oxy)pyridin-4-yl)methanamine trifluoroacetate], the IC50 was under 300 nM.
For the compound `COc1ccc(Cn2cc(C)c3c(Oc4cc(CN)ccn4)cccc32)cn1` [Compound 2-14, (2-((1-((6-Methoxypyridin-3-yl)methyl)-3-methyl-1H-indol-4-yl)oxy)pyridin-4-yl)methanamine trifluoroacetate], the IC50 was under 300 nM.
As for `NCc1ccnc(Oc2cccc3c2ccn3Cc2ccc(F)cn2)c1` [Compound 2-15, (2-((1-((5-Fluoropyridin-2-yl)methyl)-1H-indol-4-yl)oxy)pyridin-4-yl) methanamine hydrochloride], the IC50 is under 300 nM.
`NCc1ccnc(Oc2cccc3c2ccn3Cc2ccc3ccccc3n2)c1` [Compound 2-16, (2-((1-(Quinolin-2-ylmethyl)-1H-indol-4-yl)oxy)pyridin-4-yl)methanamine hydrochloride]: the IC50 was under 300 nM.
As for `NCc1ccnc(Oc2cccc3c2ccn3Cc2cnc(C(F)(F)F)s2)c1` [Compound 2-17, (2-((1-((2-(Trifluoromethyl)thiazol-5-yl)methyl)-1H-indol-4-yl)oxy)pyridin-4-ylmethanamine hydrochloride], the IC50 is under 300 nM.
As for `NCc1ccnc(Oc2cccc3c2ccn3-c2ccc(F)cc2)c1` [Compound 2-18, (2-((1-(4-Fluorophenyl)-1H-indol-4-yl)oxy)pyridin-4-yl)methanamine hydrochloride], the IC50 was under 300 nM.
The figure for `Cn1cc(-n2ccc3c(Oc4cc(CN)ccn4)cccc32)cn1` [Compound 2-19, (2-((1-(1-Methyl-1H-pyrazol-4-yl)-1H-indol-4-yl)oxy)pyridin-4-yl)methanamine hydrochloride] is under 300 nM.
The figure for `COc1ccc(-n2ccc3c(Oc4cc(CN)ccn4)cccc32)cn1` [Compound 2-20, (2-((1-(6-Methoxypyridin-3-yl)-1H-indol-4-yl)oxy)pyridin-4-yl)methanamine hydrochloride] is under 300 nM; for `NCc1ccnc(Oc2cccc3c2ccn3-c2nc3ccc(F)cc3s2)c1` [Compound 2-21, (2-((1-(6-Fluorobenzo[d]thiazol-2-yl)-1H-indol-4-yl)oxy)pyridin-4-yl)methanamine hydrochloride] it is under 300 nM; for `NCc1ccnc(Oc2cccc3c2ccn3CCc2ccc(F)cc2)c1` [Compound 2-22, (2-((1-(4-Fluorophenethyl)-1H-indol-4-yl)oxy)pyridin-4-yl)methanamine hydrochloride] it is under 300 nM.
Turning to `NCc1ccnc(Oc2cccc3c2c(Br)cn3CCc2ccc(F)cc2)c1` [Compound 2-23, (2-((3-Bromo-1-(4-fluorophenethyl)-1H-indol-4-yl)oxy)pyridin-4-yl)methanamine hydrochloride], the IC50 is under 300 nM.
The figure for `NCc1ccnc(Oc2cccc3c2ccn3C(=O)c2ccccc2)c1` [Compound 2-24, (4-((4-(Aminomethyl)pyridin-2-yl)oxy)-1H-indol-1-yl)(phenyl)methanone hydrochloride] is under 300 nM; for `NCc1ccnc(Oc2cccc3c2ccn3C(=O)Nc2ccccc2)c1` [Compound 2-25, 4-((4-(Aminomethyl)pyridin-2-yl)oxy)-N-phenyl-1H-indole-1-carboxamide hydrochloride] it is under 300 nM; for `CN(C)C(=O)Cn1ccc2c(Oc3cc(CN)ccn3)cccc21` [Compound 2-26, 2-(4-((4-(Aminomethyl)pyridin-2-yl)oxy)-1H-indol-1-yl)-N,N-dimethylacetamide hydrochloride] it is under 300 nM.
The figure for `NCc1ccnc(Oc2cccc3c2ccn3CC(=O)N2CCCCC2)c1` [Compound 2-27, 2-(4-((4-(Aminomethyl)pyridin-2-yl)oxy)-1H-indol-1-yl)-1-(piperidin-1-yl)ethanone hydrochloride] is under 300 nM; for `CN(C(=O)Cn1ccc2c(Oc3cc(CN)ccn3)cccc21)c1ccccc1` [Compound 2-30, 2-(4-((4-(Aminomethyl)pyridin-2-yl)oxy)-1H-indol-1-yl)-N-methyl-N-phenylacetamide hydrochloride] it is under 300 nM.
As for `NCc1ccnc(Oc2cccc3c2ccn3CC(=O)N2CCCc3ccccc32)c1` [Compound 2-31, 2-(4-((4-(Aminomethyl)pyridin-2-yl)oxy)-1H-indol-1-yl)-1-(3,4-dihydroquinolin-1(2H)-yl)ethanone hydrochloride], the IC50 was under 300 nM.
